Source: PMC10746280, “Bacterial efflux pump modulators prevent bacterial growth in macrophages and under broth conditions that mimic the host environment” (mBio, 2023)

Assays:
[1] = system: RAW 264.7 macrophages; experiment: SAFIRE macrophage assay: host toxicity (adherent macrophage count, morphology); assay type: cell-based
Description: (§1) In SAFIRE, we used MATLAB software to count the number of macrophages that remain adherent and retain the red fluorescence of MitoTracker, an indicator of voltage across the mitochondrial inner membrane. MATLAB then calculates the signal from bacteria (green fluorescent protein [GFP]) that overlaps with macrophages, as defined by MitoTracker, to estimate bacterial load. […] For example, we observed that the 6-trifluoropyrimidin-2-yl group on the right-hand side of EPM35 is apparently toxic to macrophages. Non-toxic analogs that reduced bacterial load by at least 60% at 5 µM and 25 µM in SAFIRE, as compared with DMSO, progressed and were evaluated in SAFIRE across eight or more concentrations, ranging from 0.001 µM to 50 µM (n = 2). […] Each of the top 13 analogs had at least an eightfold increase in potency and were not toxic for macrophages at 50 µM in the SAFIRE assay (Fig. 1C).
(§2) As previously described ([18]), RAW 264.7 macrophages (between passages 1 and 6) were grown in complete Dulbecco’s modified Eagle’s medium (DMEM) to approximately 70% to 90% confluence, scraped, washed, resuspended, diluted to 5 × 10^4 in 100 µL, and seeded in black, 96-well, glass-bottomed plates (Brooks Life Sciences catalog number MGB096-1-2-LG-L) at 37°C with 5% CO2. Twenty-four hours later, bacteria grown overnight in LB were diluted into 50 µL phosphate buffered saline (PBS) and added to a final concentration of 1 × 10^7 S. Typhimurium SL1344 (sifB::gfp) per milliliter ([78]) for an approximate multiplicity of infection of 30 bacteria per macrophage cell. Forty-five minutes after bacterial addition, gentamicin (Sigma catalog number G1264) was added to a final concentration of 40 µg/mL to inhibit the growth of remaining extracellular bacteria. Two hours after infection, gentamicin-containing medium was removed and replaced with 200 µL fresh DMEM with compound or DMSO (Sigma catalog number 276855) to the stated final concentrations. At 17.5 h after infection, PBS containing MitoTracker Red CMXRos (Life Technologies catalog number M7512), a vital dye for mitochondrial electric potential, was added to a final concentration of 100 nM. At 18 h after infection, 16% paraformaldehyde was added to a final concentration of 4% and incubated at room temperature for 15 min. Cells were washed twice with PBS and stained for 20 min with 1 µM 4′,6-diamidino-2-phenylindole (DAPI), a vital dye for double-stranded DNA, and stored in 90% glycerol in PBS until imaging. Samples were imaged in six fields of view per well using a semiautomated Yokogawa CellVoyager CV1000 confocal scanner system with a 20×, 0.75-numerical aperture (NA) objective. A MATLAB algorithm calculated bacterial accumulation (GFP fluorescence) within macrophages, as defined by DAPI and MitoTracker Red. GFP^+ macrophage area was defined as the number of GFP-positive pixels per macrophage divided by the total number of pixels per macrophage, averaged across all macrophages in the field ([34]).

[2] = system: S. Typhimurium SL1344 (sifB::gfp) in RAW 264.7 macrophages; experiment: SAFIRE macrophage assay: intracellular bacterial load (GFP signal within macrophages); assay type: cell-based, Salmonella enterica serotype Typhimurium; settings: 'Toxic' given instead of a score
Description: as §1, §2

SMILES	5 uM Avg Cell # Score [1]	25 uM Avg Cell # Score [1]	5 uM Avg Antibacterial Score [2]	25 uM Avg Antibacterial Score [2]
OC(COc1cc(Cl)cc(Cl)c1)CN1CCC(Nc2nccc(C(F)(F)F)n2)CC1 (stereo not drawn) [CU101]	71	73	9	Toxic
OC(COc1cccc(Cl)c1)CN1CCC(Nc2nccc(C(F)(F)F)n2)CC1 (stereo not drawn) [CU102]	82	51	18	Toxic
OC(COc1cccc(C(F)(F)F)c1)CN1CCC(Nc2nccc(C(F)(F)F)n2)CC1 (stereo not drawn) [CU103]	82	71	9	Toxic
CCOC(=O)c1cccc(OCC(O)CN2CCC(Nc3nccc(C(F)(F)F)n3)CC2)c1 (stereo not drawn) [CU104]	98	61	13	Toxic
OC(COc1ccccc1F)CN1CCC(Nc2nccc(C(F)(F)F)n2)CC1 (stereo not drawn) [CU105]	79	98	102	14
OC(COc1ccccc1C(F)(F)F)CN1CCC(Nc2nccc(C(F)(F)F)n2)CC1 (stereo not drawn) [CU106]	79	44	8	Toxic
OC(COc1cccc(Br)c1)CN1CCC(Nc2nccc(C(F)(F)F)n2)CC1 (stereo not drawn) [CU107]	90	41	10	Toxic
Cc1cccc(OCC(O)CN2CCC(Nc3nccc(C(F)(F)F)n3)CC2)c1 (stereo not drawn) [CU108]	94	27	28	Toxic
OC(COc1c(Cl)cccc1Cl)CN1CCC(Nc2nccc(C(F)(F)F)n2)CC1 (stereo not drawn) [CU109]	74	44	56	Toxic
O=C(CCOc1ccc(Cl)c(Cl)c1)N1CCC(Nc2nccc(C(F)(F)F)n2)CC1 [CU110]	79	27	107	Toxic
O=C(CCOc1ccc(Cl)c(Cl)c1)N1CCC(Nc2nccc(C(F)(F)F)n2)C1 (stereo not drawn) [CU111]	86	47	106	104
OC(COc1ccccc1C(F)(F)F)CN1CCC(Nc2nccc(C(F)(F)F)n2)C1 (stereo not drawn) [CU112]	88	59	47	Toxic
OC(COc1cccc(Br)c1)CN1CCC(Nc2nccc(C(F)(F)F)n2)C1 (stereo not drawn) [CU113]	92	49	68	Toxic
Cc1cccc(OCC(O)CN2CCC(Nc3nccc(C(F)(F)F)n3)C2)c1 (stereo not drawn) [CU114]	99	146	96	5.57
OC(COc1c(Cl)cccc1Cl)CN1CCC(Nc2nccc(C(F)(F)F)n2)C1 (stereo not drawn) [CU115]	93	59	99	Toxic
OC(COc1cccc2[nH]ccc12)CN1CCC(Nc2nccc(C(F)(F)F)n2)CC1 (stereo not drawn) [CU116]	99	94	90	6.41
OC(COc1ccc2cc[nH]c2c1)CN1CCC(Nc2nccc(C(F)(F)F)n2)CC1 (stereo not drawn) [CU117]	66	74	3.65	Toxic

SMILES	5 uM Avg Cell # Score [1]	25 uM Avg Cell # Score [1]	5 uM Avg Antibacterial Score [2]	25 uM Avg Antibacterial Score [2]
OC(COc1cnsn1)CN1CCC(Nc2nccc(C(F)(F)F)n2)CC1 (stereo not drawn) [CU118]	89	124	102	80
OC(COc1cc(F)cc(Br)c1)CN1CCC(Nc2nccc(C(F)(F)F)n2)CC1 (stereo not drawn) [CU119]	72	50	13	Toxic
OC(COc1ccc(Cl)cc1Br)CN1CCC(Nc2nccc(C(F)(F)F)n2)CC1 (stereo not drawn) [CU120]	74	46	13	Toxic
OC(COc1ccc(Cl)cc1Cl)CN1CCC(NC2CC2)C1 (stereo not drawn) [CU121]	89	89	73	11
CN(CC(O)COc1ccc(Cl)c(Cl)c1)C1CCOC1 (stereo not drawn) [CU122]	81	74	102	81
CCN(CC(O)COc1ccc(Cl)c(Cl)c1)CC1CCOC1 (stereo not drawn) [CU123]	85	84	98	28
OC(COc1ccc(Cl)c(Cl)c1)CN1CCC(F)(F)C1 (stereo not drawn) [CU124]	80	71	102	85
OC(COc1ccc(Cl)c(Cl)c1)CN1CCC(F)C1 (stereo not drawn) [CU125]	81	86	102	73
CO[C@H]1CCN(CC(O)COc2ccc(Cl)c(Cl)c2)C1 (stereo partly drawn) [CU126]	81	86	99	47
CO[C@@H]1CCN(CC(O)COc2ccc(Cl)c(Cl)c2)C1 (stereo partly drawn) [CU127]	92	85	97	46
COCC1CCCN1CC(O)COc1ccc(Cl)c(Cl)c1 (stereo not drawn) [CU128]	85	85	98	32
OC(COc1ccc(Cl)c(Cl)c1)CN1CCC2(CCOCC2)C1 (stereo not drawn) [CU129]	100	88	95	39
Cc1nnc(CN(C)CC(O)COc2ccc(Cl)c(Cl)c2)o1 (stereo not drawn) [CU130]	100	73	98	85
Cc1noc(CN(C)CC(O)COc2ccc(Cl)c(Cl)c2)n1 (stereo not drawn) [CU131]	88	80	101	86
OC(CNC1(c2ccccc2)CC1)COc1ccc(Cl)c(Cl)c1 (stereo not drawn) [CU132]	82	39	102	Toxic
OC(CNCc1cccc2ccccc12)COc1ccc(Cl)c(Cl)c1 (stereo not drawn) [CU133]	84	92	60	Toxic
